Test results reported in a melting point compilation (Tetko et al.; mined from patent text by program, amines drawn as free bases though some values may be those of a salt).

Row | SMILES | melting point [°C]
1 | COCC(=O)OC1(C(=O)COC(C)=O)CCC2C3CC(C)C4=CC(=O)C=CC4(C)C3C(O)CC21C (stereo not given) | 150 to 152
2 | N#Cc1cc(C(O)CNC2CCCC2)ccc1N (stereo not given) | 158 to 160
3 | COc1ccc2cc(CC(=O)N3CC=C(c4cccc(C(F)(F)F)c4)CC3)ccc2c1 | 102 to 105
4 | CC12CCC3c4cc(C=O)c(O)cc4CCC3C1CCC2O (stereo not given) | 219 to 221
5 | CC(C)(C)OC(=O)N1CC=C(c2c(F)cc(N)cc2F)CC1 | 134 to 135
6 | Nc1nc2ccc(NC(=O)[C@@H]3CCCN3C(=O)[C@@H](Cc3ccccc3)NS(=O)(=O)Cc3ccccc3)cc2s1 | 130 to 133
7 | Cn1c(-c2ccccn2)cc2onc(-c3ccccc3)c2c1=O | 160 to 162
8 | NCC1Cc2cccc(-c3cccc(Cl)c3)c2O1 (stereo not given) | 150 to 154
9 | CNC(=O)c1ccc2ccccc2c1 | 108 to 109
10 | CC(C)c1ccc2c(c1)c(SCc1ccccc1)c(CC(C)(C)C(=O)O)n2Cc1ccc(Cl)cc1 | 135 to 137
11 | CC(C)c1nn(-c2ccc(C(F)(F)F)cn2)cc1CCCOc1nn(C)cc1CCC(=O)O | 124 to 125
12 | C#CCOc1cc2c(=O)cc(C(=O)OCC)n(CC#C)c2ccc1=O | 169
13 | Oc1ccc(C(c2ccc(O)cc2)(c2ccc(I)cc2)C(F)(F)F)cc1 | 187 to 189
14 | CCOC(=O)C1=C(C)NC(CO)=C(C(=O)OCC)C1c1ccccc1[N+](=O)[O-] (stereo not given) | 112 to 113
15 | C[C@H](CSC(=O)c1ccccc1)C(=O)N(CC(=O)OC(C)(C)C)C1CCCC1 | 54 to 56
16 | COc1ccc2nnc3ccc(OC)cc3c2c1 | 170 to 172
17 | O=C(c1ccc(Cl)cc1)C1(c2ccccc2Cl)CO1 (stereo not given) | 65 to 66
18 | O=CCc1ccc2c(c1[N+](=O)[O-])C(=O)c1ccccc1C2=O | 192

Row | SMILES | melting point [°C]
19 | C=Cc1c(CS)cnc(C)c1O | 130 to 140
20 | COc1ccc(-c2cccc3[nH]c4c(c23)CCN(Cc2ccccc2)CC4)c(C)c1 | 177 to 178
21 | COc1ccc(-c2nc3cnc4ccccc4c3n2CC(C)C)cc1OC | 192 to 199
22 | Clc1cnc2c(Cl)cccc2n1 | 137 to 138
23 | NS(=O)(=O)CC(=O)c1ccccc1 | 97 to 99
24 | CCCCc1ncc(CC(Cc2ccccc2)C(=O)O)n1Cc1ccc(C(=O)O)cc1 (stereo not given) | 120 to 124
25 | CCN(C)c1cccc(Cl)c1COc1cccn2c(Br)c(C)nc12 | 124 to 126
26 | O=C(O)C1=Cc2cc(Cl)c(Sc3ccccc3)cc2OC1C(F)(F)F (stereo not given) | 272 to 274
27 | O=C1Nc2cccnc2N(C(=O)NCCN2CCCCC2CN2CCCC2)c2ccccc21 (stereo not given) | 198
28 | COc1ccc(NC(=O)CCl)c(OC)c1 | 90 to 91
29 | C=C(C)c1cc(-c2ccc(OCCNS(C)(=O)=O)cc2)n(-c2ccc(OC)nc2)n1 | 96 to 99
30 | CC1=CC(C)(C)Nc2cc3oc(=O)cc(C)c3cc21 | 270 to 274
31 | CCOC(=O)c1nc2sc(Br)c([N+](=O)[O-])c2c(=O)[nH]1 | 284
32 | CS(=O)(=O)c1ccc(-c2cnn(-c3ccc(F)c(F)c3)c(=O)c2-c2cccs2)cc1 | 189 to 191
33 | CS(=O)(=O)c1ccc(-c2cc(Br)c3cnc(Nc4ccc(N5CCOCC5)cc4)nn23)cc1 | 242 to 244
34 | N#Cc1c(N2CCNCC2)c2cc(F)ccc2n(Cc2ccc(F)cc2)c1=O | 240
35 | CCC1c2c(ncn2C)CCN1C(=O)NC(C)C (stereo not given) | 220
36 | C(=Cc1ccc(N(c2ccccc2)c2ccccc2)cc1)c1ccc(N(c2ccccc2)c2ccccc2)cc1 | 247 to 259

Continued, values first:

Row | melting point [°C] | SMILES
37 | 188 | COc1ccc2c(c1)S(=O)(=O)N(C(C)C)C2=O
38 | 104 to 107 | O=C(CCl)N1CCN(C(=O)CCl)CC1
39 | 108 to 110 | CCNC(=O)NCC1CC1c1cccn2nc(C)cc12 (stereo not given)
40 | 75 to 77 | COc1ccc(C(=C(c2ccc(OC)cc2)C(F)(F)F)c2ccc(F)cc2)cc1
41 | 122 to 123 | CC(C)(C)OC(=O)N1CCN(c2cccc([N+](=O)[O-])c2)C(=O)C1
42 | 117 to 118 | CC(=O)OCc1ccc(Sc2ccccc2C(=O)N(C)C)c([N+](=O)[O-])c1
43 | 150 | CC(C)CNC(=O)CN1CCN(Cc2ccc3c(c2)NC(=O)C(C)O3)CC1 (stereo not given)
44 | 263 | CNc1nc2[nH]c(-c3cccc(CNC(=O)COC)n3)cc2c2c1ncn2C
45 | 125 to 126 | Cc1cccc(C)c1C=NNC(=N)NCc1ccccc1
46 | 189 | Cc1cc(-c2ncn3c(C(F)(F)F)cc(-c4ccc(C(F)(F)F)c(OCC(F)(F)F)c4)nc23)ccn1
47 | 139 to 143 | CC(C)(C)OC(=O)Nc1cc(N2CCOCC2)c(I)cc1N
48 | 180 to 183 | O=[N+]([O-])c1oc2cc3c(cc2c1-c1ccccc1)OCO3
49 | 105 to 106 | C=CCN(C(=O)NC(C)(C)C)c1nc(NC(=O)NC(C)(C)C)c2cc([N+](=O)[O-])ccc2n1
50 | 132 to 134 | Cc1oc2ccc(C#N)cc2c1Cl
51 | 76 to 78 | CC(C#N)(c1ccccc1)c1ccc([N+](=O)[O-])cc1 (stereo not given)
52 | 185 to 186 | CC(=O)OC(OC(C)=O)c1ccc2occ(C#N)c(=O)c2c1
53 | 151 to 153 | Cc1ccc(C(=O)Nc2ccc(CN3CCCCC3)c(C(F)(F)F)c2)cc1Br

Row | melting point [°C] | SMILES
54 | 149 to 150 | CC(C(=O)NCCN(C)C)c1ccc(-c2cn3ccccc3n2)cc1 (stereo not given)
55 | 135 to 136 | ClCCCOc1cccc(OCCCCl)c1
56 | 184 to 186 | NC(=O)Cc1cccc(C(=O)c2ccc(F)cc2)c1N
57 | 120 | Cn1ccnc1COc1cccc(Nc2cc(-c3c[nH]nc3-c3ccccn3)ccn2)c1
58 | 165 to 166 | CCOC(=O)c1sc2ccc3c(c2c1Cl)O[C@@H](CO)CO3
59 | 197 to 200 | Cn1cnc(=S)c(-c2cccc(C(F)(F)F)c2)c1
60 | 118 to 120 | CCCCc1nn(-c2ccccc2Cl)c(=O)n1Cc1ccc(-c2ccccc2S(=O)(=O)NC(=O)c2ccc(F)cc2)cc1
61 | 66 to 68 | Cc1cccc(COc2ccc3c(c2)[C@@H](O)[C@H](Cc2cccnc2)CO3)n1 (relative stereo)
62 | 127 to 129 | COC(=O)c1cc2ccc(C(=O)NC(CO[Si](C)(C)C(C)(C)C)CO[Si](C)(C)C(C)(C)C)cc2[nH]1
63 | 279 to 283 | O=C(CCNc1c(C(=O)O)[nH]c2cc(Cl)cc(Cl)c12)c1ccc(Cl)cc1
64 | 252 to 254 | CC(C)(C)OC(=O)N1CCc2ccc(C(=O)NC3COCCn4c3nc(-c3ccncn3)cc4=O)cc2C1 (racemic)
65 | 129 to 130 | Cc1ccccc1-c1cc(N2CCOCC2)ncc1N(C)C(=O)C(C)(C)c1cc(C(F)(F)F)cc(C(F)(F)F)c1
66 | 45 to 47.5 | c1ccc(COc2ccc(C3CO3)nc2)cc1 (stereo not given)
67 | 212 to 214 | CCCOc1ccccc1-c1nc2cc3ncn(CC)c3cc2c(=O)[nH]1
68 | 150 to 151 | Cc1oc(-c2ccccc2)nc1COc1cccc(CSc2ccc(CC(=O)O)cc2Cl)c1
69 | 225 to 227 | COC(=O)C1=C(COCCn2c(C)nc(C)c2C)Nc2[nH]c(N)nc(=O)c2C1c1ccccc1Cl (stereo not given)
70 | 150 | COC(=O)C=Cc1ccc(Br)nc1
